Where two headings read alike, the source gives them in different places.
Key:
[1] = test system: wheat leaf rust, Puccinia recondita; experiment: whole plant or invertebrate; type: in vivo; conditions: foliar; for pest or weed control at 280.212 g/ha: read-out: % Control (with 1" of rain), foliar, 0.25 lb., 1" of rain; for pest or weed control at 1120.85 g/ha: read-out: % Control (with 1" of rain), foliar, 1 lb., 1" of rain
[2] = test system: wheat leaf rust, Puccinia recondita; experiment: whole plant or invertebrate; type: in vivo; conditions: foliar; for pest or weed control at 280.212 g/ha: read-out: % Control (without rain), foliar, 0.25 lb.; for pest or weed control at 1120.85 g/ha: read-out: % Control (without rain), foliar, 1 lb.

Compound | pest or weed control at 280.212 g/ha [1] [%] | pest or weed control at 280.212 g/ha [2] [%] | pest or weed control at 1120.85 g/ha [2] [%] | pest or weed control at 1120.85 g/ha [1] [%]
c1nc(-n2cnnc2)n[nH]1 [Example 66, 4-(3-(1,2,4-triazy)-1,2,4-triazole] | 99 | 100 | 100 | –
c1cnc(-n2cnnc2)nc1 [Example 67, 4-(2-pyrimidyl)-1,2,4-triazole] | – | 94 | 87 | 97
c1csc(-n2cnnc2)n1 [Example 68, 4-(2-thiazyl)-1,2,4-triazole] | 67 | 66 | 73 | 96
c1ccc2sc(-n3cnnc3)nc2c1 [Example 69, 4-(2-benzothiazyl)-1,2,4-triazole] | 98 | 100 | 100 | 98
Clc1cccc2sc(-n3cnnc3)nc12 [Example 70] | 100 | 100 | 100 | –
c1ccc2[nH]c(-n3cnnc3)nc2c1 [Example 71, 4-(2-benzimidazolyl)-1,2,4-triazole] | 0 | 10 | 20 | 0
Cn1cnnc1S [Example 73, 3-mercapto-4-methyl-1,2,4-triazole] | 0 | 34 | 50 | 10
CCn1cnnc1S [Example 74, 3-mercapto-4-ethyl-1,2,4-triazole] | 0 | 40 | 60 | 0
CC(C)(C)n1cnnc1S [Example 77, 3-mercapto-4-t-butyl-1,2,4-triazole] | 57 | 68 | 100 | 80
CCCCCCCCn1cnnc1S [Example 80, 3-mercapto-4-n-octyl-1,2,4-trizole] | 51 | 100 | 100 | 65
CC(C)(C)CC(C)(C)n1cnnc1S [Example 81, 3-mercapto-4-t-octyl-1,2,4-triazole] | 53 | 100 | 100 | 86
CCCCCCCCCCn1cnnc1S [Example 82, 3-mercapto-4-n-decyl-1,2,4-triazole] | 46 | 61 | 78 | 72
Sc1nncn1C1CCCCC1 [Example 83, 3-mercapto-4-cyclohexyl-1,2,4-triazole] | 100 | 44 | 34 | 98
Sc1nncn1-c1ccccc1 [Example 85, 3-mercapto-4-phenyl-1,2,4-triazole] | 72 | 80 | 85 | 90
Cn1c(O)nnc1S [Example 86, 3-mercapto-4-methyl-5-hydroxy-1,2,4-triazole] | 63 | 96 | 99 | 63
CCCCn1c(O)nnc1S [Example 87, 3-mercapto-4-n-butyl-5-hydroxy-1,2,4-triazole] | 0 | 15 | 49 | 0
Oc1nnc(S)n1-c1ccccc1 [Example 88, 3-mercapto-4-phenyl-5-hydroxy-1,2,4-triazole] | 98 | 73 | 80 | 100
CCCCn1c(C)nnc1S [Example 89, 3-mercapto-4-n-butyl-5-methyl-1,2,4-triazole] | 57 | 26 | 51 | 80
Cn1c(S)nnc1-c1ccco1 [Example 90, 3-mercapto-4-methyl-5-(2-furyl)-1,2,4-triazole] | 80 | 0 | 28 | 87

Compound | pest or weed control at 280.212 g/ha [1] [%] | pest or weed control at 280.212 g/ha [2] [%] | pest or weed control at 1120.85 g/ha [2] [%] | pest or weed control at 1120.85 g/ha [1] [%]
CCCCn1c(S)nnc1-c1ccco1 [Example 91, 3-mercapto-4-n-butyl-5-(2-furyl)-1,2,4-triazole] | 100 | 41 | 72 | 100
Sc1nnc(-c2ccco2)n1-c1ccccc1 [Example 92, 3-mercapto-4-phenyl-5-(2-furyl)-1,2,4-triazole] | 100 | 100 | 81 | 87
Cn1c(S)nnc1C(=O)O [Example 93, 3-mercapto-4-methyl-5-carboxy-1,2,4-triazole] | 0 | 65 | 94 | 0
COC(=O)c1nnc(S)n1C [Example 96, 3-mercapto-4-methyl-5-methoxycarbonyl-1,2,4-triazole] | 0 | 90 | 98 | 5
CCCCn1cnnc1SC [Example 102, 3-methylmercapto-4-n-butyl-1,2,4-triazole] | 51 | 100 | 100 | 51
CCCCSc1nncn1CCCC [Example 103, 3-n-butylmercapto-4-n-butyl-1,2,4-triazole] | 50 | 50 | 90 | 80
CCCCCCCCCCSc1nncn1CCCC [Example 104, 3-n-decylmercapto-4-butyl-1,2,4-triazole] | 45 | 80 | 98 | 98
C=CCSc1nncn1CCCC [Example 105, 3-allylmercapto-4-n-butyl-1,2,4-triazole] | 50 | 50 | 95 | 90
C=CCOCCSc1nncn1CCCC [Example 108, 3-(2-allyloxyethylmercapto)-4-n-butyl-1,2,4-triazole] | 25 | 35 | 85 | 40
CCCCn1cnnc1SCCOc1ccccc1 [Example 109, 3-(2-phenoxyethylmercapto)-4-n-butyl-1,2,4-triazole] | 96 | 100 | 100 | 100
CCCCn1cnnc1SC(C)=O [Example 115, 3-acetylmercapto-4-n-butyl-1,2,4-triazole] | 90 | 99 | 100 | 95
CCCCn1cnnc1SC(=O)COC [Example 116, 3-methoxyacetylmercapto-4-n-butyl-1,2,4-triazole] | 95 | 100 | 100 | 99
CCCCn1cnnc1SC(=O)CCC [Example 117, 3-butyrylmercapto-4-n-butyl-1,2,4-triazole] | 95 | 100 | 100 | 99
CCCCn1cnnc1SC(=O)c1ccccc1Br [Example 118, 3-(2-bromobenzoylmercapto)-4-n-butyl-1,2,4-triazole] | 100 | 100 | 100 | 100
CCCCn1cnnc1SC(=O)c1ccc(Br)cc1 [Example 119, 3-(4-bromobenzoylmercapto)-4-n-butyl-1,2,4-triazole] | 100 | 100 | 100 | 100
CCCCn1cnnc1SC(=O)c1cc(Cl)cc(Cl)c1 [Example 120, 3-(3,5-dichlorobenzoylmercapto)-4-n-butyl-1,2,4-triazole] | 98 | 100 | 100 | 98
CCCCn1cnnc1SC(=O)c1cccc([N+](=O)[O-])c1 [Example 122, 3-(3-nitrobenzoylmercapto)-4-n-butyl-1,2,4-triazole] | 100 | 100 | 100 | 100
CCCCn1cnnc1SC(=O)c1cc(OC)c(OC)c(OC)c1 [Example 123, 3-(3,4,5-trimethoxybenzoylmercapto)-4-n-butyl-1,2,4-triazole] | 90 | 98 | 100 | 98

From US4120864A, “1,2,4-4H-triazole derivatives” (Rohm and Haas Company, priority 1972, dated 1978)
